Common to all, as to assay: inhibition of tumour cell growth, NCI panel, 48 h
In experiment [1] the test system is HOP-92 NSCLC.
Experiment [2] has as its system SNB-19 CNS.
Experiment [3] relates to CCRF-CEM leukemia.
The subject of experiment [4] is NCI-H226 lung.
Experiment [5] deals with IGROV1 ovarian.
Experiment [6] relates to UO-31 renal.
The subject of experiment [7] is NCI-H23 lung.
Experiment [8] concerns SR leukemia.
Experiment [9] has as its system MOLT-4 leukemia.
In experiment [10] the test system is HCT-116 colon.

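Dose response: 5 concentrations. Exposure: 48 h. Format: 96-well plates. Endpoint: linear interpolation; highest concentration if not reached. Abbreviation: GI50, concentration required for 50% inhibition of growth. At the TGI there is no net growth.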 Bounds are passed on as bounds.

With `Cc1sc(NC2=NC(=O)/C(=C\c3ccccc3)S2)nc1-c1nc(NC2=NC(=O)/C(=C\c3ccccc3)S2)sc1C`, the GI50 is 12 µM in experiment [1]; 26 µM in experiment [2]; 9.41 µM in experiment [3]; 12.4 µM in experiment [4]; 23 µM in experiment [5]; 24.9 µM in experiment [6]. Moreover, the GI50 was 15.4 µM in experiment [7], 7.49 µM in experiment [8], 24.2 µM in [9] and 9.31 µM in [10]. For the same compound, the TGI was above 36.1 µM in experiment [1]; above 50 µM in experiment [2]; 35.6 µM in experiment [3]; above 32.8 µM in experiment [4]; above 50 µM in experiment [5]; above 44.4 µM in [6]. Moreover, the TGI in experiment [7] is above 41.4 µM; in experiment [8] it was 21.4 µM; in [9], above 50 µM; in experiment [10], 24.6 µM.
As to `Nc1ccc(-c2nc3ccccc3o2)cc1S`, the GI50 in [1] is 18.8 µM; in experiment [2] it was 22.9 µM; in [3], 14 µM; in [4] it was 11.8 µM; in experiment [5], 19.7 µM; in [6], 19.5 µM. Also, the GI50 was 14.5 µM in experiment [7], 10.5 µM in experiment [8], 7.77 µM in experiment [9] and 15.1 µM in [10]. For the same compound, the TGI was 42.3 µM in experiment [1]; 81.3 µM in experiment [2]; 43.3 µM in experiment [3]; 30.4 µM in experiment [4]; above 100 µM in experiment [5]; 50.6 µM in experiment [6]. Moreover, the TGI in [7] is 35.6 µM; in experiment [8], 64 µM; in experiment [9] it was above 100 µM; in experiment [10] it was 28.3 µM.
For the compound `CC(=O)c1ccc(NC(=O)C(=O)C(C(=O)c2ccc(Cl)c(Cl)c2)C2OC(=O)c3ccccc32)cc1` (stereo not given), the TGI was 78.4 µM in [1]; above 100 µM in [2]; above 100 µM in [3]; 24.6 µM in experiment [4]; 65.5 µM in experiment [5]; above 100 µM in [6]. Further, the TGI in experiment [7] was 32.2 µM; in experiment [8], above 100 µM; in experiment [9], above 100 µM; in experiment [10] it was 25.8 µM.
Consider `Cn1ccnc1C(=O)/C=C/c1ccc(CC(=O)Nc2ccc(F)cc2)cc1`, for which the GI50 is 4.51 µM in [1]; 2.74 µM in [2]; 2 µM in [3]; 8.57 µM in [4]; 2.93 µM in experiment [5]; 1.72 µM in [6]. Besides, the GI50 was 3.04 µM in experiment [7], 0.517 µM in experiment [8], 2.32 µM in experiment [9] and 0.99 µM in experiment [10]. Further, the TGI in experiment [1] is 13 µM; in experiment [2] it was 7.02 µM; in experiment [3], above 25 µM; in [4] it was above 25 µM; in [5], 16.6 µM; in experiment [6], 5.16 µM. Also, the TGI in experiment [7] is 8.56 µM; in [8], above 25 µM; in experiment [9], 18.1 µM; in [10], 3.68 µM.

The record behind these values is PubChem BioAssay (NCI).
